Test results reported in the supplement of paper PMC10307832.

Compound: Cn1cnc2c(F)c(Nc3ccc(Br)cc3Cl)c(C(=O)NOCCO)cc21 [Selumetinib] + CC1(C)CCC(c2ccc(Cl)cc2)=C(CN2CCN(c3ccc(C(=O)NS(=O)(=O)c4ccc(N[C@H](CCN5CCOCC5)CSc5ccccc5)c(S(=O)(=O)C(F)(F)F)c4)cc3)CC2)C1 [Navitoclax] (partner 0.5 µM)
Assay: relative viability (nuclei count vs DMSO), 5 days (fraction); higher = more cells survive
Conditions: first compound 0.6325 µM
In short: (§1)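 Lung cancer cell lines, seeded in 1536-well plates, were treated the following day by pin tool with a single drug or with five library-drug doses (not always all listed) in √10 steps on top of a fixed anchor-drug dose. Cells were fixed and nuclei stained in one step after 5 days, and nuclei were counted. Relative viability is the nuclei count for treated wells divided by that for vehicle wells, reported as medians of duplicate plates.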

Cell Line	relative viability
NCI-H2009	0.554
SW 1573	0.729
SK-LU-1	0.268

Compound: Cn1cnc2c(F)c(Nc3ccc(Br)cc3Cl)c(C(=O)NOCCO)cc21 [Selumetinib] + COc1cc2c(Oc3ccc(NC(=O)C4(C(=O)Nc5ccc(F)cc5)CC4)cc3F)ccnc2cc1OCCCN1CCOCC1 [Foretinib] (partner 0.25 µM)
Assay: as above
Conditions: first compound 0.02 µM
In short: as §1

Cell Line	relative viability
NCI-H1651	0.758
NCI-H1944	0.898
NCI-H2009	0.965
SW 1573	0.909
SK-LU-1	0.762

Same assay, conditions: first compound 0.06325 µM

Cell Line	relative viability
NCI-H1651	0.731
NCI-H1944	0.796
NCI-H2009	0.87
SW 1573	0.776
SK-LU-1	0.778

Same assay, conditions: first compound 0.2 µM

Cell Line	relative viability
NCI-H1651	0.67
NCI-H1944	0.69
NCI-H2009	0.511
SW 1573	0.638
SK-LU-1	0.711

Same assay, conditions: first compound 0.6325 µM

Cell Line	relative viability
NCI-H1651	0.673
NCI-H1944	0.536
NCI-H2009	0.337
SW 1573	0.598
SK-LU-1	0.449

Compound: Cn1cnc2c(F)c(Nc3ccc(Br)cc3Cl)c(C(=O)NOCCO)cc21 [Selumetinib] + Nc1nc2[nH]cc(CCc3ccc(C(=O)N[C@@H](CCC(=O)O)C(=O)O)cc3)c2c(=O)[nH]1 [Pemetrexed] (partner 0.2 µM)
Assay: as above
Conditions: first compound 0.02 µM
In short: as §1

Cell Line	relative viability
NCI-H1651	0.623
NCI-H1944	0.573
NCI-H2009	1.03
SW 1573	0.82
SK-LU-1	1

Same assay, conditions: first compound 0.06325 µM

Cell Line	relative viability
NCI-H1651	0.57
NCI-H1944	0.476
NCI-H2009	0.945
SW 1573	0.725
SK-LU-1	0.978

Same assay, conditions: first compound 0.2 µM

Cell Line	relative viability
NCI-H1651	0.596
NCI-H1944	0.405
NCI-H2009	0.792
SW 1573	0.857
SK-LU-1	0.862

Same assay, conditions: first compound 0.6325 µM

Cell Line	relative viability
NCI-H1651	0.626
NCI-H1944	0.484
NCI-H2009	0.45
SW 1573	0.769
SK-LU-1	0.614
